Measurements taken from the supplement of paper PMC10307832.

Key:
Assay in all cases: relative viability (nuclei count vs DMSO), 5 days (fraction); higher = more cells survive
[1] = compound: C1/C(=C\C2=CC=CS2)/C(=O)/C(=C/C3=CC=CS3)/C1 + NC(=O)Nc1cc(-c2cccc(F)c2)sc1C(=O)N[C@H]1CCCNC1 [AZD7762] (partner 0.2 µM)
Procedure, shortened: (§1)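 Dosing by pin tool came one day after lung cancer cell lines were seeded in 1536-well plates, using either one drug or a fixed anchor-drug dose plus five library-drug doses (not always all listed) in √10 steps. After 5 days, nuclei were counted on 4× images. Relative viability is treated-well nuclei count divided by vehicle-well nuclei count, and values are medians of duplicate plates.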

[2] = compound: C1/C(=C\C2=CC=CS2)/C(=O)/C(=C/C3=CC=CS3)/C1 + CC1(C)CCC(c2ccc(Cl)cc2)=C(CN2CCN(c3ccc(C(=O)NS(=O)(=O)c4ccc(N[C@H](CCN5CCOCC5)CSc5ccccc5)c(S(=O)(=O)C(F)(F)F)c4)cc3)CC2)C1 [Navitoclax] (partner 0.5 µM)
Procedure, shortened: as §1

[3] = compound: C[C@]12O[C@H](C[C@]1(O)CO)n1c3ccccc3c3c4c(c5c6ccccc6n2c5c31)CNC4=O [Lestaurtinib] + CC(=O)c1c(C)c2cnc(Nc3ccc(N4CCNCC4)cn3)nc2n(C2CCCC2)c1=O [Palbociclib] (partner 0.5 µM)
Procedure, shortened: as §1

[4] = compound: C1=CC(=CC=C1C2=CC(=C(S2)NC(=O)N)C(=O)N)F [TPCA-1] + CC(=O)c1c(C)c2cnc(Nc3ccc(N4CCNCC4)cn3)nc2n(C2CCCC2)c1=O [Palbociclib] (partner 0.5 µM)
Procedure, shortened: as §1

| Cell Line | relative viability ([1]; first compound 0.2 µM) | relative viability ([1]; first compound 2 µM) | relative viability ([1]; first compound 6.325 µM) | relative viability ([1]; first compound 20 µM) | relative viability ([2]; first compound 0.2 µM) | relative viability ([2]; first compound 0.6325 µM) | relative viability ([2]; first compound 2 µM) | relative viability ([2]; first compound 6.325 µM) | relative viability ([2]; first compound 20 µM) | relative viability ([3]; first compound 0.005 µM) | relative viability ([3]; first compound 0.01581 µM) | relative viability ([3]; first compound 0.05 µM) | relative viability ([3]; first compound 0.1581 µM) | relative viability ([3]; first compound 0.5 µM) | relative viability ([4]; first compound 0.04 µM) | relative viability ([4]; first compound 0.4 µM) | relative viability ([4]; first compound 1.265 µM) | relative viability ([4]; first compound 4 µM) | relative viability ([1]; first compound 0.6325 µM) | relative viability ([4]; first compound 0.1265 µM) |
| --- | --- | --- | --- | --- | --- | --- | --- | --- | --- | --- | --- | --- | --- | --- | --- | --- | --- | --- | --- | --- |
| LK-2 | 0.548 | 0.562 | 0.408 | 0.421 | 0.824 | 0.956 | 0.702 | 0.862 | 0.89 | 0.705 | 0.833 | 0.756 | 0.53 | 0.307 | 0.726 | 0.725 | 0.697 | 0.427 | – | – |
| HCC-78 | 0.649 | 0.76 | 0.68 | 0.658 | 0.81 | 0.786 | 0.82 | 0.682 | 0.782 | 0.453 | 0.545 | 0.53 | 0.557 | 0.427 | 0.464 | 0.492 | 0.48 | 0.387 | 0.729 | 0.455 |
| NCI-H2405 | 0.958 | 0.867 | 0.716 | 0.715 | 1.23 | 0.892 | 1.15 | 0.766 | 1.08 | 0.518 | 0.546 | 0.492 | 0.515 | 0.275 | 0.565 | 0.525 | 0.446 | 0.478 | 0.757 | 0.507 |
| HOP-62 | 0.661 | 0.657 | 0.385 | 0.692 | 0.985 | 1.23 | 0.8 | 0.952 | 1.06 | 0.491 | 0.539 | 0.496 | 0.468 | 0.335 | 0.483 | 0.497 | 0.418 | 0.466 | 0.688 | 0.458 |
| BEN | 0.739 | 0.774 | 0.643 | 0.679 | 0.0742 | 0.059 | 0.368 | 0.0733 | 0.0554 | 0.483 | 0.537 | 0.467 | 0.432 | 0.399 | 0.474 | 0.531 | 0.577 | 0.422 | 0.635 | 0.468 |
| ChaGo-K-1 | 0.91 | 0.873 | 0.581 | 0.51 | 1.01 | 0.964 | 1.11 | 0.698 | 0.727 | 0.977 | 0.89 | 0.77 | 0.779 | 0.671 | 0.976 | 0.795 | 0.891 | 0.733 | 0.9 | 0.663 |
| NCI-H1755 | 0.551 | 0.436 | 0.426 | 0.335 | 1.07 | 1.03 | 0.963 | 0.849 | 0.944 | 0.446 | 0.427 | 0.464 | 0.376 | 0.382 | 0.457 | 0.459 | 0.431 | 0.399 | 0.421 | 0.454 |
| LC-2-ad | 0.871 | 0.871 | 0.72 | 0.825 | 0.451 | 0.451 | 0.399 | 0.406 | 0.49 | 0.59 | 0.527 | 0.418 | 0.429 | 0.293 | 0.467 | 0.49 | 0.489 | 0.421 | 0.899 | 0.465 |
| NCI-H1666 | 0.877 | 0.968 | 0.793 | 0.815 | 1.22 | 0.818 | 1.05 | 0.622 | 0.983 | 0.705 | 0.704 | 0.638 | 0.74 | 0.646 | 0.653 | 0.605 | 0.673 | 0.64 | 0.86 | 0.661 |
| 201T | 0.626 | 0.689 | 0.411 | 0.58 | 1.24 | 1.17 | 1.27 | 1.13 | 1.2 | 0.398 | 0.45 | 0.364 | 0.405 | 0.399 | 0.376 | 0.385 | 0.386 | 0.363 | 0.704 | 0.362 |
| NCI-H1395 | 0.36 | 0.405 | 0.411 | 0.414 | 1.28 | 1.65 | 1.23 | 1.04 | 1.15 | 0.646 | 0.617 | 0.547 | 0.573 | 0.477 | 0.644 | 0.639 | 0.635 | 0.512 | 0.356 | 0.596 |
| LU99A | 0.413 | 0.415 | 0.248 | 0.29 | 0.734 | 0.796 | 0.814 | 0.788 | 0.793 | 0.371 | 0.392 | 0.285 | 0.271 | 0.185 | 0.468 | 0.407 | 0.369 | 0.258 | 0.295 | 0.365 |
| NCI-H1437 | 1.14 | 1.19 | 1.03 | 1.1 | 1.15 | 1.09 | 1.07 | 1.03 | 0.992 | 0.35 | 0.371 | 0.369 | 0.364 | 0.415 | 0.302 | 0.3 | 0.35 | 0.3 | 1.2 | 0.288 |
| EKVX | 0.631 | 0.764 | – | 0.695 | 0.999 | 0.87 | 0.916 | 0.912 | 0.919 | 0.346 | – | 0.355 | 0.421 | 0.426 | 0.451 | 0.469 | 0.269 | 0.394 | 0.685 | – |
| LCLC-97TM1 | 0.3 | 0.259 | 0.252 | 0.14 | 0.345 | 0.337 | 0.367 | 0.297 | 0.261 | – | 0.243 | 0.133 | 0.134 | 0.194 | 0.231 | 0.199 | 0.232 | 0.206 | 0.254 | 0.2 |
| NCI-H2170 | 0.921 | 0.866 | 0.714 | 0.764 | 0.655 | 0.565 | 0.678 | 0.516 | 0.547 | 0.325 | 0.379 | 0.275 | 0.394 | 0.218 | 0.413 | 0.417 | 0.391 | 0.275 | 0.923 | 0.404 |
